Tests used:
pMel-1 CD8 T cells = format: cell-based; conditions: gp100-activated; for percentage of CD44hiCD62Lhi TCM CD8 T cell population: 48 h of treatment, for PARPi concentration-dependent
Experimental: For ACT experiments, CD8+ T cells from pMel-1 mice were activated with gp100 peptide with and without PARPi for 48 h. Based on their CD44 and CD62L expression, cells were sorted by FACS and transferred into 9-day-old B16F10 melanoma-bearing mice tumor-bearing mice (1×10^6 cells per mouse). Tumor growth and survival of mice were monitored.
A total of 0.1-0.2×10^6 cells per sample were stained for Live/Dead staining followed by fixation and permeabilization. […] CD8^+ T cells from tumor samples were stained similarly. Data acquisition was performed on a BD LSR II flow cytometer using the software FACS Diva v.9.0. Results were analyzed using FlowJo software (TreeStar). […]

human CD8 T cells = experiment: In vitro-activated human CD8+ T cells, memory characteristics; format: cell-based; conditions: anti-CD3/CD28 coupled beads for 72 h
Experimental: For evaluation of memory characteristics in human CD8+ T cells, naive CD8+ T cells were activated in the presence or absence of PARPi, by Dynabeads™ Human T-Activator CD3/CD28 (Thermo Fisher #11131), […]. Post-activation cells were gated upon CD8^+ T cell population and various characteristics were investigated as described in the Examples below.
A total of 0.1-0.2×10^6 cells per sample were stained for Live/Dead staining followed by fixation and permeabilization. For IFNγ and granzyme B (Gzm B) staining, BD Cytofix/Cytoperm (catalog no. 51-2090KZ) and BD Perm/Wash (catalog no. 51-2091KZ) buffer set were used according to the manufacturer's instructions (BD Pharmingen). CD8^+ T cells from tumor samples were stained similarly. Data acquisition was performed on a BD LSR II flow cytometer using the software FACS Diva v.9.0. Results were analyzed using FlowJo software (TreeStar). MitoFM, a green-fluorescent mitochondrial stain, which localizes to mitochondria, was used as described previously (Sukumar et al., Cell Metab 23 (1): 63-76, 2016).
To this end, human naïve CD8 T cells were activated with anti-CD3/CD28 coupled beads for 72 h.

Structure (SMILES)	percentage of CD44hiCD62Lhi TCM CD8 T cell population (pMel-1 CD8 T cells)	expression of IFNγ and Gzm B in CD44hiCD62Lhi CD8 T cells (pMel-1 CD8 T cells; 48 h)	IFNγ expression (human CD8 T cells)	number of CD45ROhiCCR7hi cells (human CD8 T cells)	number of CD45ROhiCD62Lhi cells (human CD8 T cells)
NC(=O)c1cccc2cn(-c3ccc([C@@H]4CCCNC4)cc3)nc12 [Niraparib]	significantly increased				
Cn1ncnc1[C@H]1c2n[nH]c(=O)c3cc(F)cc(c23)N[C@@H]1c1ccc(F)cc1 [Talazoparib]	significantly increased	significantly increased	significant increase	significant increase	significant increase

From US20260286302A1, “METHODS FOR PRODUCING A SUPER CENTRAL MEMORY CD8 T CELL SUBTYPE BY POLY(ADP-RIBOSE) POLYMERASE (PARP) INHIBITION AND USES THEREOF” (Georgetown University, priority 2023, published 2026)
